Literature values as cited in patent EP3959200B1, “NEW TRIAZOLE AND TRIAZOLOTHIADIAZINE DERIVATIVES EXERTING CYTOTOXIC AND APOPTOTIC EFFECTS ON A549 CELLS THROUGH AKT INHIBITION” (Anadolu Universitesi, priority 2020, dated 2022).
Where two headings read alike, the source gives them in different places.

Experiments:
HCC rats = details: cited from earlier work
[1] = system: human HCC (HepG2) cell line; details: cited from earlier work
HeLa cell line = details: cited from earlier work
PC-3 cell line = details: cited from earlier work
HCT116 cell line = details: cited from earlier work
[2] = system: kidney cancer (OU-31) cell line; design: concentration or dose not given beside the values; details: cited from earlier work
[3] = system: leukemia (MOLT-4) cell line; details: cited from earlier work
K562 cells = details: cited from earlier work
PC-3 cells = details: cited from earlier work
A549 = details: cited from earlier work
[4] = target: alkaline phosphatase (ALP) enzyme; details: cited from earlier work
[5] = system: 60 cell lines derived from leukemia, non-small cell lung cancer, skin, ovarian, prostate and breast cancers; details: all cancer types tested; cited from earlier work
human lung cancer (A549) = details: cited from earlier work
[6] = system: human breast cancer (MCF-7); details: cited from earlier work
[7] = system: human colon epithelial cells (HT-29); details: cited from earlier work
[8] = system: human cervical carcinoma (HeLa); details: cited from earlier work
[9] = system: human breast cancer (MCF-7); details: cited from earlier work; remark: listed apart in the source
[10] = system: ovarian carcinoma (SKOV3); details: cited from earlier work
[11] = system: human lung adenocarcinoma (A549); details: cited from earlier work
tubulin = tubulin polymerization; cited from earlier work
[12] = system: breast adenocarcinoma (MCF-7); details: cited from earlier work
[13] = system: human hepatocellular carcinoma (HCC) cell line (HepG2); details: HepG2, MTT; cited from earlier work
[14] = system: leukemia (CCRF-CEM, RPMI-8226 and SR), non-small cell lung cancer (HOP-92), melanoma (UACC-62) and kidney cancer (UO-31) cells; details: across CCRF-CEM, RPMI-8226, SR, HOP-92, UACC-62, UO-31; cited from earlier work
Ehrlich acid tumor (EAC) = details: 25 mg/kg, body weight; cited from earlier work
Huh7 cell line = details: cited from earlier work
lung cancer (H157) cells = details: cited from earlier work
[15] = system: human gastric cancer (NUGC), human liver cancer (HA22T and HepG2), nasopharyngeal cancer (HONE1), human breast cancer (MCF); details: all other cancer cells tested except DLD1 cells; cited from earlier work
[16] = system: normal fibroblast (WI38) cells; details: cited from earlier work
[17] = system: 60 cell lines derived from lung, colon, skin, kidney, ovarian, central nervous system and blood cancers; details: all cells tested; cited from earlier work
[18] = system: breast adenocarcinoma (MCF-7); details: MCF-7, MTT; read-out: LC50 (the source's name); cited from earlier work
[19] = system: human epithelial cervical carcinoma (HeLa) cells; details: MTT; cited from earlier work
colon carcinoma (HCT116) = details: HCT116, MTT; read-out: LC50 (the source's name); cited from earlier work
[20] = system: kidney fibroblast (BHK-21) cells; details: cited from earlier work
[21] = system: lung cancer (H-157) cell line; details: cited from earlier work

O=C(CNNc1nnc2n1NC=C(c1ccccc1)S2)c1ccccc1 [1-phenyl-2-(2-(7-phenyl-5H-[1,2,4]triazolo[3,4-b][1,3,4]thiadiazine-3-yl)hydrazinyl)ethanone]
inhibition of hepatic tyrosine kinase (HTK) expression (HCC rats): 45% | reduction of vascular endothelial growth factor (VEGF) level (HCC rats): 30% | improvement of liver level of glutathione (GSH) (HCC rats; compared to the HCC group): 99% | improvement of liver level of lipid peroxides (HCC rats; compared to the HCC group): 62% | IC50 [1]: 19.6 µM

COc1cc(-c2nnc(SCC(=O)c3ccc(C)cc3)n2N)cc(OC)c1OC [2-(4-amino-5-(3,4,5-trimethoxyphenyl)-4H-1,2,4-triazole-3-ylthio)-1-(p-tolyl)ethanone]
IC50 (HeLa cell line): 2.94 µM | IC50 (PC-3 cell line): 31.3 µM | IC50 (HCT116 cell line): 0.37 µM

O=C(CSc1nnc2n1N=C(c1ccc(Cl)cc1)CS2)c1ccc(F)cc1 [2-((6-(4-Chlorophenyl)-7H-[1,2,4]triazolo[3,4-b][1,3,4]thiadiazine-3-yl)thio-1-(4-fluorophenyl)ethanone]
growth [2]: 48.14% | growth [3]: 49.82%

CC(=O)Nc1ccc(OCC2=NNC(SCC(=O)Nc3ccc(Br)cc3)N2Cc2ccccc2)cc1 (centres unmarked) [2-[(3-{[4-(acetylamino)phenoxy]methyl}-4-benzyl-4,5-dihydro-1H-1,2,4-triazole-5-yl)sulfanyl]-N-(4-bromophenyl)acetamide]
IC50 (K562 cells): 7.71 µM

Cc1ccc(C(C)C)c(OCc2nnc(SCC(=O)Nc3ccc(S(N)(=O)=O)cc3)n2Cc2ccccc2)c1 [2-{ [3-[[5-Methyl-2-(propane-2-yl)phenoxy]methyl)-4-benzyl-4,5-dihydro-1H-1,2,4-triazole-5-yl]sulfanyl}-N-(4-sulfamoilphenyl)acetamide]
IC50 (PC-3 cells): 5.96 µM

Cc1ccc(C(C)C)c(OCC2=NNC(SCC(=O)Nc3ccc(Cl)cc3)N2Cc2ccccc2)c1 (centres unmarked) [2-{[3-[[5-methyl-2-(propane-2-yl)phenoxy]methyl]-4-benzyl-4,5-dihydro-1H-1,2,4-triazole-5-yl]sulfanyl}-N-(4-chlorophenyl)acetamide]
IC50 (A549): 7.9 µM

O=c1oc2ccccc2cc1C1=Nn2c(nnc2-c2cc3ccccc3oc2=O)SC1 [3,3'-(7/7-[1,2,4]Triazolo[3,4-b][1,3,4]thiadiazine-3,6-diyl)-bis(2H-chromen-2-one)]
IC50 [4]: 1.15 ± 1 µM

Fc1cc(-c2nnc3n2N=C(c2ccc(Cl)cc2)CS3)c(Cl)cc1Cl [3-(2,4-Dichloro-5-fluorophenyl)-6-(4-chlorophenyl)-1,2,4-triazolo[3,4-b]-1,3,4-thiadiazine]
GI50 [5]: 1.06 to 25.4 µM

CC(C)(c1ccc(Cl)cc1)c1nnc2n1N=C(c1ccc(OC(F)(F)F)cc1)CS2 [3-(2-(4-chlorophenyl)propane-2-yl)-6-(4-(trifluoromethoxy)phenyl)-7H-[1,2,4]triazolo[3,4-b] [1,3,4]thiadiazine]
IC50 (human lung cancer (A549)): 18.2 µM | IC50 [6]: 10.5 µM

CS(=O)(=O)c1ccc(Cc2nnc3n2N=C(c2ccccc2)CS3)cc1 [3-(4-(methylsulfonyl)benzyl)-6-phenyl-7H-[1,2,4]triazolo[3,4-b][1,3,4]thiadiazine]
IC50 [7]: 25 µM

COc1ccc(-n2nc(-c3nnc(SCCCO)n3-c3ccccc3)cc2-c2ccccc2)cc1 [3-((5-(1-(4-Methoxyphenyl)-5-phenyl-1H-pyrazole-3-yl)-4-phenyl-4H-1,2,4-triazole-3-yl)thio)propane-1-ol]
IC50 [8]: 2.98 µM | IC50 [9]: 2.72 µM

COc1cc(C2=Nn3c(nnc3-c3ccccc3)SC2)cc(OC)c1OC [3-phenyl-6-(3,4,5-trimethoxyphenyl)-7H-[1,2,4]triazolo[3,4-b][1,3,4]thiadiazine]
IC50 [10]: 4.63 ± 0.09 µM | IC50 [11]: 3.71 ± 0.13 µM | IC50 (tubulin): 1.61 µM | IC50 [12]: 0.7 ± 0.04 µM

S=c1[nH]nc(OCc2ccccc2)n1N=Cc1c[nH]nc1-c1ccc(Cl)cc1 [4-((3-(4-chlorophenyl)-1H-pyrazole-4-methylene)amino)-5-(benzyloxy)-2,4-dihydro-1,2,4-triazole-3-thione]
IC50 [13]: 0.018 µM

Cc1ccc(COc2nn(CN3CCOCC3)c(=S)n2N=Cc2c[nH]nc2-c2ccc(F)cc2)cc1 [4-((3-(4-fluorophenyl)-1H-pyrazole-4-methylene)amino)-2-(morpholinomethyl)-5-(4-methylbenzyloxy)-2,4-dihydro-1,2,4-triazole-3-thione]
IC50 [13]: 0.034 µM

OC(c1ccccc1)c1nnc(SCc2ccccc2)n1Cc1ccccc1 (centres unmarked) [4-Benzyl-3-(benzylthio)-5-[hydroxy(phenyl)methyl]-4H-1,2,4-triazole]
antiproliferative activity [14]: 25-58%

Nn1c(S)nnc1-c1ccccc1Cl [4-amino-5-mercapto-3-(2-chlorophenyl)-1,2,4-triazole]
tumor cell inhibition (TCI) (Ehrlich acid tumor (EAC)): 63.59%

CCc1cccc2c3c([nH]c12)C(CC)(Cc1n[nH]c(=S)n1C)OCC3 (centres unmarked) [5-[(1,8-Diethyl-1,3,4,9-tetrahydropyrano[3,4-b]indole-1-yl)methyl]-4-methyl-2,4-dihydro-3H-1,2,4-triazole-3-thione]
IC50 (Huh7 cell line): 4.29 µM

O=c1[nH]cc(F)c(=O)[nH]1 [5-fluorouracil]
IC50 (HeLa cell line): 57.2 µM | IC50 (PC-3 cell line): 57 µM | IC50 (HCT116 cell line): 68.7 µM

Clc1ccc(C2=Nn3c(nnc3-c3cccnc3)SC2)cc1Cl [6-(3,4-dichlorophenyl)-3-(pyridine-3-yl)-7H-[1,2,4]triazolo[3,4-b][1,3,4]thiadiazine]
IC50 (lung cancer (H157) cells): 0.96 ± 0.43 µM

COc1cc(-c2nnc3n2N=C(c2ccc(Br)cc2)CS3)cc(OC)c1OC [6-(4-bromophenyl)-3-(3,4,5-trimethoxyphenyl)-7H-[1,2,4]triazolo[3,4-b][1,3,4]thiadiazine]
IC50 [10]: 0.3 ± 0.65 µM | IC50 [11]: 3.15 ± 0.01 µM | IC50 (tubulin): 1.03 µM | IC50 [12]: 3.34 ± 0.02 µM

CS(=O)(=O)c1ccc(Cc2nnc3n2N=C(c2ccc(-c4ccccc4)cc2)CS3)cc1 [6-(biphenyl-4-yl)-3-(4-(methylsulfonyl)benzyl)-7H-[1,2,4]triazolo[3,4-b][1,3,4]thiadiazine]
IC50 [7]: 12.5 µM

c1ccc(C2=Nn3c(nnc3-c3ccncc3)SC2)cc1 [6-phenyl-3-(pyridine-4-yl)-7H-[1,2,4]triazolo[3,4-b][1,3,4]thiadiazine]
IC50 [15]: < 0.8 µM | IC50 [16]: > 10 µM

Fc1cc(C2=Nn3c(COc4ccccc4Cl)nnc3SC2=Cc2ccc(Cl)cc2)c(Cl)cc1Cl [7-(4-chlorobenzylidene)-6-(2,4-dichloro-5-fluorophenyl)-3-((2-chlorophenoxy)methyl)-1,2,4-triazolo[3,4-b]-1,3,4-thiadiazine]
GI50 [17]: < 10 µM

COc1cccc2c1C(=O)c1c(O)c3c(c(O)c1C2=O)C[C@@](O)(C(=O)CO)C[C@@H]3O[C@H]1C[C@H](N)[C@H](O)[C@H](C)O1 [doxorubicin]
IC50 [1]: 36.3 µM | CC50 [18]: 26.1 µM | EC50 [19]: 2.5 µM | IC50 (human lung cancer (A549)): 4.52 µM | IC50 [8]: 8.72 µM | CC50 (colon carcinoma (HCT116)): 37.7 µM

CC[C@]1(O)C[C@H]2CN(CCc3c([nH]c4ccccc34)[C@@](C(=O)OC)(c3cc4c(cc3OC)N(C=O)[C@H]3[C@@](O)(C(=O)OC)[C@H](OC(C)=O)[C@]5(CC)C=CCN6CC[C@]43[C@@H]65)C2)C1 [vincristine]
inhibition [20]: 74.5% | IC50 (lung cancer (H157) cells): 1.03 ± 0.04 µM | IC50 [21]: 1.03 ± 0.04 µM
